Reference: patent US10131652B2, “Pyrimidinyloxy benzene derivatives as herbicides” (E. I. DU PONT DE NEMOURS AND COMPANY, priority 2014, dated 2018)

Columns and labels:
Assay type in all cases: in vivo
[1] = tested on: ragweed (common ragweed, Ambrosia elatior); test: Test B pre-/postemergence plant response
Summary of the method: (§1)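 Evaluation is visual, about 10 days after application, rating injury from 0 (none) to 100 (complete control) relative to untreated controls. Application was a preemergence soil spray on seeded pots or a postemergence spray on one- to two-leaf plants.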

kochia (Kochia scoparia) = test: Test B pre-/postemergence plant response
Summary of the method: as §1

[2] = tested on: Italian ryegrass (Lolium multiflorum); test: Test B pre-/postemergence plant response
Summary of the method: as §1

[3] = tested on: giant foxtail (Setaria faberii); test: Test D pre-/postemergence plant response; conditions: for Plant response rating (scale 0 to 100), Foxtail, Giant / Foxtail, Giant plant response rating: Postemergence; for Foxtail, Giant plant response rating / Plant response rating, Foxtail, Giant: scale 0 to 100 (0 no effect, 100 complete control); for Plant response rating, Foxtail, Giant: Preemergence
Summary of the method: (§2)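 Each compound, in non-phytotoxic solvent with surfactant, was sprayed onto soil right after sowing or onto young plants 2 to 18 cm tall. After 13 to 15 days under greenhouse conditions, effects were judged visually against controls on a 0 (no effect) to 100 (complete control) scale.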

[4] = tested on: yellow nutsedge (Cyperus esculentus); test: Test D pre-/postemergence plant response; conditions: for Plant response rating, Nutsedge, Yellow: Preemergence
Summary of the method: as §2

[5] = tested on: blackgrass (Alopecurus myosuroides); test: Test D pre-/postemergence plant response; conditions: for Plant response rating (scale 0 to 100), Blackgrass / Blackgrass plant response rating: Postemergence; for Blackgrass plant response rating / Plant response rating, Blackgrass: scale 0 to 100 (0 no effect, 100 complete control); for Plant response rating, Blackgrass: Preemergence
Summary of the method: as §2

[6] = tested on: ragweed (common ragweed, Ambrosia elatior); test: Test D pre-/postemergence plant response; conditions: for Plant response rating, Ragweed: Preemergence
Summary of the method: as §2

[7] = tested on: oilseed rape (Brassica napus); test: Test D pre-/postemergence plant response; conditions: for Plant response rating, Oilseed Rape: Preemergence
Summary of the method: as §2

[8] = tested on: barnyardgrass (Echinochloa crus-galli); test: Test D pre-/postemergence plant response; conditions: for Plant response rating (scale 0 to 100), Barnyardgrass / Barnyardgrass plant response rating: Postemergence; for Barnyardgrass plant response rating / Plant response rating, Barnyardgrass: scale 0 to 100 (0 no effect, 100 complete control); for Plant response rating, Barnyardgrass: Preemergence
Summary of the method: as §2

[9] = tested on: large (Lg) crabgrass (Digitaria sanguinalis); test: Test D pre-/postemergence plant response; conditions: for Plant response rating (scale 0 to 100), Crabgrass, Large / Crabgrass, Large plant response rating: Postemergence; for Crabgrass, Large plant response rating / Plant response rating, Crabgrass, Large: scale 0 to 100 (0 no effect, 100 complete control); for Plant response rating, Crabgrass, Large: Preemergence
Summary of the method: as §2

corn (Zea mays) = test: Test D pre-/postemergence plant response; conditions: for Plant response rating (scale 0 to 100), Corn / Corn plant response rating: Postemergence; for Corn plant response rating / Plant response rating, Corn: scale 0 to 100 (0 no effect, 100 complete control); for Plant response rating, Corn: Preemergence
Summary of the method: as §2

[10] = tested on: Italian ryegrass (Lolium multiflorum); test: Test D pre-/postemergence plant response; conditions: for Plant response rating, Ryegrass, Italian: Preemergence
Summary of the method: as §2

[11] = tested on: pigweed (Amaranthus retroflexus); test: Test D pre-/postemergence plant response; conditions: for Plant response rating, Pigweed: Preemergence
Summary of the method: as §2

[12] = tested on: galium (catchweed bedstraw, Galium aparine); test: Test D pre-/postemergence plant response; conditions: for Plant response rating, Galium: Preemergence
Summary of the method: as §2

[13] = 125 g ai/ha, postemergence, 0 to 100 scale, 0 no effect, 100 complete control
[14] = Postemergence, 500 g ai/ha, 0 to 100 scale (0 no effect, 100 complete control)
[15] = Preemergence, 125 g ai/ha, 0 to 100 scale (0 no effect, 100 complete control)
[16] = Preemergence, 500 g ai/ha, 0 to 100 scale where 0 is no effect and 100 is complete control
[17] = Postemergence, 31 g ai/ha, scale 0 to 100 (0 no effect, 100 complete control)
[18] = 4 g ai/ha, scale 0 to 100 (0 no effect, 100 complete control)
[19] = 8 g ai/ha, scale 0 to 100 (0 no effect, 100 complete control)
[20] = 16 g ai/ha, scale 0 to 100 (0 no effect, 100 complete control)
[21] = 31 g ai/ha, scale 0 to 100 (0 no effect, 100 complete control)

N#Cc1cccc(Oc2ncc(Cl)cn2)c1-c1cc(C(F)(F)F)on1 [Compound 157]
20: Ragweed plant response rating [1, 15] | Ryegrass, Italian plant response rating [2, 15] | Plant response rating (scale 0 to 100), Foxtail, Giant ([3]; 8 g ai/ha) | Foxtail, Giant plant response rating ([3]; 31 g ai/ha) | Plant response rating, Foxtail, Giant ([3]; 31 g ai/ha) | Plant response rating, Pigweed [11, 18]
50: Plant response rating, Ragweed [1, 14] | Plant response rating (scale 0 to 100), Ragweed ([6]; Postemergence, 4 g ai/ha) | Plant response rating (scale 0 to 100), Galium ([12]; Postemergence, 8 g ai/ha)
10: Plant response rating, Ragweed [1, 13] | Nutsedge, Yellow plant response rating [4, 17] | Plant response rating (scale 0 to 100), Galium ([12]; Postemergence, 4 g ai/ha)
0: Plant response rating (scale 0 to 100), Foxtail, Giant ([3]; 4 g ai/ha) | Plant response rating, Foxtail, Giant ([3]; 4 g ai/ha) | Plant response rating, Foxtail, Giant ([3]; 8 g ai/ha) | Plant response rating, Foxtail, Giant ([3]; 16 g ai/ha) | Plant response rating (scale 0 to 100), Nutsedge, Yellow ([4]; Postemergence, 4 g ai/ha) | Plant response rating, Nutsedge, Yellow [4, 18] | Plant response rating, Nutsedge, Yellow [4, 19] | Plant response rating, Nutsedge, Yellow [4, 20] | Plant response rating, Nutsedge, Yellow [4, 21] | Plant response rating (scale 0 to 100), Blackgrass ([5]; 4 g ai/ha) | Plant response rating (scale 0 to 100), Blackgrass ([5]; 8 g ai/ha) | Plant response rating, Blackgrass ([5]; 4 g ai/ha) | Plant response rating, Blackgrass ([5]; 8 g ai/ha) | Plant response rating, Blackgrass ([5]; 16 g ai/ha) | Plant response rating, Ragweed [6, 18] | Plant response rating, Ragweed [6, 19] | Plant response rating, Ragweed [6, 20] | Plant response rating, Ragweed [6, 21] | Plant response rating (scale 0 to 100), Oilseed Rape ([7]; Postemergence, 4 g ai/ha) | Plant response rating, Oilseed Rape [7, 18] | Plant response rating, Oilseed Rape [7, 19] | Plant response rating (scale 0 to 100), Barnyardgrass ([8]; 4 g ai/ha) | Plant response rating (scale 0 to 100), Barnyardgrass ([8]; 8 g ai/ha) | Plant response rating, Barnyardgrass ([8]; 4 g ai/ha) | Plant response rating, Barnyardgrass ([8]; 8 g ai/ha) | Plant response rating, Barnyardgrass ([8]; 16 g ai/ha) | Plant response rating (scale 0 to 100), Crabgrass, Large ([9]; 4 g ai/ha) | Plant response rating, Crabgrass, Large ([9]; 4 g ai/ha) | Plant response rating, Crabgrass, Large ([9]; 8 g ai/ha) | Plant response rating (scale 0 to 100), Corn (corn (Zea mays); 4 g ai/ha) | Plant response rating (scale 0 to 100), Corn (corn (Zea mays); 8 g ai/ha) | Plant response rating, Corn (corn (Zea mays); 4 g ai/ha) | Plant response rating, Corn (corn (Zea mays); 8 g ai/ha) | Plant response rating, Corn (corn (Zea mays); 31 g ai/ha) | Plant response rating (scale 0 to 100), Ryegrass, Italian ([10]; Postemergence, 4 g ai/ha) | Plant response rating (scale 0 to 100), Ryegrass, Italian ([10]; Postemergence, 8 g ai/ha) | Plant response rating, Ryegrass, Italian [10, 18] | Plant response rating, Ryegrass, Italian [10, 19] | Plant response rating, Ryegrass, Italian [10, 20]
90: Plant response rating, Kochia (kochia (Kochia scoparia); [13]) | Plant response rating, Ryegrass, Italian [2, 13] | Plant response rating, Ryegrass, Italian [2, 16]
65: Pigweed plant response rating [11, 17]
5: Plant response rating (scale 0 to 100), Nutsedge, Yellow ([4]; Postemergence, 8 g ai/ha) | Blackgrass plant response rating ([5]; 16 g ai/ha) | Blackgrass plant response rating ([5]; 31 g ai/ha) | Plant response rating, Blackgrass ([5]; 31 g ai/ha) | Plant response rating (scale 0 to 100), Oilseed Rape ([7]; Postemergence, 8 g ai/ha) | Barnyardgrass plant response rating ([8]; 16 g ai/ha) | Barnyardgrass plant response rating ([8]; 31 g ai/ha) | Plant response rating, Barnyardgrass ([8]; 31 g ai/ha) | Plant response rating (scale 0 to 100), Crabgrass, Large ([9]; 8 g ai/ha) | Crabgrass, Large plant response rating ([9]; 16 g ai/ha) | Crabgrass, Large plant response rating ([9]; 31 g ai/ha) | Plant response rating, Crabgrass, Large ([9]; 16 g ai/ha) | Corn plant response rating (corn (Zea mays); 16 g ai/ha) | Corn plant response rating (corn (Zea mays); 31 g ai/ha) | Plant response rating, Corn (corn (Zea mays); 16 g ai/ha) | Ryegrass, Italian plant response rating [10, 17] | Plant response rating, Ryegrass, Italian [10, 21]
80: Plant response rating, Galium [12, 19] | Plant response rating, Galium [12, 20]
35: Plant response rating (scale 0 to 100), Pigweed ([11]; Postemergence, 4 g ai/ha)
40: Foxtail, Giant plant response rating ([3]; 16 g ai/ha) | Plant response rating, Oilseed Rape [7, 20] | Plant response rating, Crabgrass, Large ([9]; 31 g ai/ha)
100: Plant response rating, Kochia (kochia (Kochia scoparia); [14]) | Kochia plant response rating (kochia (Kochia scoparia); [15]) | Plant response rating, Kochia (kochia (Kochia scoparia); [16]) | Plant response rating, Ryegrass, Italian [2, 14] | Plant response rating, Oilseed Rape [7, 21] | Plant response rating, Pigweed [11, 19] | Plant response rating, Pigweed [11, 20] | Plant response rating, Pigweed [11, 21]
70: Plant response rating, Ragweed [1, 16] | Plant response rating (scale 0 to 100), Pigweed ([11]; Postemergence, 8 g ai/ha) | Galium plant response rating [12, 17] | Plant response rating, Galium [12, 18]
25: Ragweed plant response rating [6, 17] | Oilseed Rape plant response rating [7, 17]
15: Plant response rating (scale 0 to 100), Ragweed ([6]; Postemergence, 8 g ai/ha)
85: Plant response rating, Galium [12, 21]
